18 molecules from patent publication US10760052B2, “Method of inhibiting tau phosphorylation” (priority 2012, dated 2020) can be followed below.

This test deals with T1, mu opiate receptor (MOR) (Rattus norvegicus, UniProt P33535).
T1 construct: from tissue; host or cells: striatum (membrane preparation)
The class given is biochemical. The method, then:
To assess the mu opiate receptor (MOR) agonist activity of positive compounds from the FLNA screening, compounds were tested in a [^35S]GTPγS binding assay using striatal membranes. […] This assay measures a functional consequence of receptor occupancy at one of the earliest receptor-mediated events. The assay permits for traditional pharmacological parameters of potency, efficacy and antagonist affinity, with the advantage that agonist measures are not subjected to amplification or other modulation that may occur when analyzing parameters further downstream of the receptor.
Thus, striatal tissue was homogenized in 10 volumes of ice cold 25 mM HEPES buffer, pH 7.4, which contained 1 mM EGTA, 100 mM sucrose, 50 μg/ml leupeptin, 0.04 mM PMSF, 2 μg/ml soybean trypsin inhibitor and 0.2% 2-mercaptoethanol. The homogenates were centrifuged at 800×g for 5 minutes and the supernatants were centrifuged at 49,000×g for 20 minutes.
The resultant striatal membrane preparation (200 μg) was admixed and maintained (incubated) at 30° C. for 5 minutes in reaction buffer as above that additionally contained 1 mM MgCl2 and 0.5 nM [^35S]GTPγS (0.1 μCi/assay, PerkinElmer Life and Analytical Sciences) in a total volume of 250 μl and continued for 5 minutes in the absence or presence of 0.1-10 μM of an assayed compound of interest. The reaction was terminated by dilution with 750 μl of ice-cold reaction buffer that contained 20 mM MgCl2 and 1 mM EGTA and immediate centrifugation at 16,000×g for 5 minutes.
Normal rabbit serum (1 μl) was added to 1 ml of lysate and incubated at 25° C. for 30 minutes. Nonspecific immune complexes were removed by incubation with 25 μl of protein A/G-conjugated agarose beads at 25° C. for 30 minutes followed by centrifugation at 5,000×g at 4° C. for 5 minutes. The supernatant was divided and separately incubated at 25° C. for 30 minutes with antibodies raised against Gαo proteins (1:1,000 dilutions).
The immunocomplexes so formed were collected by incubation at 25° C. for 30 minutes with 40 μl of agarose-conjugated protein A/G beads and centrifugation at 5,000×g at 4° C. for 5 minutes. The pellet was washed and suspended in buffer containing 50 mM Tris-HCl, pH 8.0, and 1% NP-40. The radioactivity in the suspension was determined by liquid scintillation spectrometry.

Setting [1] is: [35S]GTPγS binding to Gαo in striatal membranes, compound 0.1 μM.
The mark [2] stands for this setting: [35S]GTPγS binding to Gαo in striatal membranes, compound 1 μM.
The mark [3] stands for this setting: [35S]GTPγS binding to Gαo in striatal membranes, compound 1 μM plus 1 μM β-funaltrexamine (MOR antagonist).

Like-named read-outs stand apart in the source and are kept apart here.

T1 sequence (P33535 whole entry): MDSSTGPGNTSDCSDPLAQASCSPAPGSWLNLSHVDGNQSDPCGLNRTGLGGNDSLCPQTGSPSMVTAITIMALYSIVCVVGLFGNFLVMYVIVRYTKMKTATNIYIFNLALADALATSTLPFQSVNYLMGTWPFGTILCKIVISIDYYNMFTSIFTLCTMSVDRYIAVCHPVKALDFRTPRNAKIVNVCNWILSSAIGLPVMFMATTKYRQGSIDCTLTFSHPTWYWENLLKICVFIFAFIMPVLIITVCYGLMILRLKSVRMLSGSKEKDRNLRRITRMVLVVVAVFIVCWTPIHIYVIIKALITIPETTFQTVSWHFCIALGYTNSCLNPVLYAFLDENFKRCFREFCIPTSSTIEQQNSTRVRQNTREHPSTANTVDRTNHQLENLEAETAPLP

For the molecule `CC1CN(CC(O)COc2ccc(Br)c(F)c2)CC(C)O1` (stereo not drawn) [Compound A0041], the “% DAMGO (0.1 μM)” value was 108.4%, the “% DAMGO (1 μM)” value is 102.8% and the “% DAMGO + BFNA” value is recorded as 68.5%. The “Concentration of FLNA-Binding Compound as Agonist 0.1 μM” value (shortened to “Concentration … as Agonist 0.1 μM”) under setting [1] was determined as 212.7%. The “Concentration of FLNA-Binding Compound as Agonist 1 μM” value under setting [2] is listed as 283.6%. Besides, the “Concentration of FLNA-Binding Compound as Agonist 1 μM + BFNA” value (“Concentration … as Agonist 1 μM + BFNA” for short) under setting [3] is 50.6%.
In the case of `CC1CN(CC(O)COc2cccc(N(C)C)c2)CC(C)O1` (stereo not drawn) [Compound A0042], the “% DAMGO (0.1 μM)” value was found to be 75.2%, the “% DAMGO (1 μM)” value is given as 84.5% and the “% DAMGO + BFNA” value was determined as 121.1%. For the same molecule, the “Concentration … as Agonist 0.1 μM” value under setting [1] was 147.5%. Also, the “Concentration of FLNA-Binding Compound as Agonist 1 μM” value under setting [2] worked out at 233.1%. In addition, the “Concentration … as Agonist 1 μM + BFNA” value under setting [3] came out at 89.5%.
As to `CC1CN(CC(O)COc2ccccc2Br)CC(C)O1` (stereo not drawn) [Compound A0043], the “% DAMGO (0.1 μM)” value turned out to be 93.4%, the “% DAMGO (1 μM)” value worked out at 81.1% and the “% DAMGO + BFNA” value is recorded as 120.6%. Besides, the “Concentration … as Agonist 0.1 μM” value under setting [1] came to 183.3%. For the same molecule, the “Concentration of FLNA-Binding Compound as Agonist 1 μM” value under setting [2] is recorded as 223.8%. The “Concentration … as Agonist 1 μM + BFNA” value under setting [3] turned out to be 89.1%.
Take `CC(=O)c1ccc(OCC(O)CN2CC(C)OC(C)C2)cc1` (stereo not drawn) [Compound A0044]: the “% DAMGO (0.1 μM)” value stood at 89.8%, the “% DAMGO (1 μM)” value worked out at 75.8% and the “% DAMGO + BFNA” value is reported as 182.3%. Further, the “Concentration … as Agonist 0.1 μM” value under setting [1] is reported as 176.2%. The “Concentration of FLNA-Binding Compound as Agonist 1 μM” value under setting [2] came out at 209.1%. Further, the “Concentration … as Agonist 1 μM + BFNA” value under setting [3] turned out to be 134.7%.
For `CC1CN(CC(O)COc2ccc(Br)c(Cl)c2)CC(C)O1` (stereo not drawn) [Compound A0045], the “% DAMGO (0.1 μM)” value turned out to be 73.3%, the “% DAMGO (1 μM)” value is given as 99.3% and the “% DAMGO + BFNA” value worked out at 134.2%. In addition, the “Concentration … as Agonist 0.1 μM” value under setting [1] is reported as 143.9%. The “Concentration of FLNA-Binding Compound as Agonist 1 μM” value under setting [2] was determined as 274.2%. For the same molecule, under setting [3], the “Concentration … as Agonist 1 μM + BFNA” value is given as 99.2%.
As for `CC1CN(CC(O)COc2cc(F)cc(F)c2)CC(C)O1` (stereo not drawn) [Compound A0046], the “% DAMGO (0.1 μM)” value came to 131.2%, the “% DAMGO (1 μM)” value is 128.3% and the “% DAMGO + BFNA” value was 189.4%. Besides, the “Concentration … as Agonist 0.1 μM” value under setting [1] came to 257.5%. Further, the “Concentration of FLNA-Binding Compound as Agonist 1 μM” value under setting [2] amounted to 354.1%. For the same molecule, under setting [3], the “Concentration … as Agonist 1 μM + BFNA” value was 140.0%.
For the molecule `CC1CN(CC(O)COc2ccc(Cl)cc2)CC(C)O1` (stereo not drawn) [Compound A0047], the “% DAMGO (0.1 μM)” value is given as 118.8%, the “% DAMGO (1 μM)” value was determined as 92.4% and the “% DAMGO + BFNA” value amounted to 157.6%. Further, the “Concentration … as Agonist 0.1 μM” value under setting [1] worked out at 233.0%. Also, under setting [2], the “Concentration of FLNA-Binding Compound as Agonist 1 μM” value came out at 255.0%. The “Concentration … as Agonist 1 μM + BFNA” value under setting [3] worked out at 116.5%.
Take `COc1ccc(OCC(O)CN2CC(C)OC(C)C2)cc1` (stereo not drawn) [Compound A0048]: the “% DAMGO (0.1 μM)” value came out at 119.1%, the “% DAMGO (1 μM)” value came to 109.7% and the “% DAMGO + BFNA” value is listed as 226.3%. Also, under setting [1], the “Concentration … as Agonist 0.1 μM” value came out at 233.7%. Further, the “Concentration of FLNA-Binding Compound as Agonist 1 μM” value under setting [2] is 302.9%. The “Concentration … as Agonist 1 μM + BFNA” value under setting [3] was 167.2%.
`CC1CN(CC(O)COc2cccc(F)c2)CC(C)O1` (stereo not drawn) [Compound A0049]: the “% DAMGO (0.1 μM)” value is reported as 118.4%, the “% DAMGO (1 μM)” value was found to be 134.2% and the “% DAMGO + BFNA” value is 144.9%. In addition, under setting [1], the “Concentration … as Agonist 0.1 μM” value came to 232.3%. The “Concentration of FLNA-Binding Compound as Agonist 1 μM” value under setting [2] came out at 370.3%. Moreover, the “Concentration … as Agonist 1 μM + BFNA” value under setting [3] is recorded as 107.1%.
Regarding `CN(C)c1cccc(OCC(O)CN2CCc3ccccc3C2)c1` (stereo not drawn) [Compound A0050], the “% DAMGO (0.1 μM)” value is reported as 77.0%, the “% DAMGO (1 μM)” value worked out at 68.6% and the “% DAMGO + BFNA” value came out at 109.6%. The “Concentration … as Agonist 0.1 μM” value under setting [1] is on record as 151.0%. Also, the “Concentration of FLNA-Binding Compound as Agonist 1 μM” value under setting [2] is recorded as 189.3%. For the same molecule, under setting [3], the “Concentration … as Agonist 1 μM + BFNA” value is listed as 81.0%.
As to `CC1CN(CC(O)COc2cccc(C(F)(F)F)c2)CC(C)O1` (stereo not drawn) [Compound A0051], the “% DAMGO (0.1 μM)” value turned out to be 148.0%, the “% DAMGO (1 μM)” value is on record as 140.1% and the “% DAMGO + BFNA” value worked out at 286.3%. Under setting [1], the “Concentration … as Agonist 0.1 μM” value is 290.4%. The “Concentration of FLNA-Binding Compound as Agonist 1 μM” value under setting [2] turned out to be 386.6%. Under setting [3], the “Concentration … as Agonist 1 μM + BFNA” value came out at 211.6%.
As to `COc1ccc(OCC(O)CN2CCc3ccccc3C2)cc1` (stereo not drawn) [Compound A0053], the “% DAMGO (0.1 μM)” value is given as 46.5%, the “% DAMGO (1 μM)” value amounted to 47.5% and the “% DAMGO + BFNA” value is given as 46.2%. Also, the “Concentration … as Agonist 0.1 μM” value under setting [1] was found to be 78.5%. Also, the “Concentration of FLNA-Binding Compound as Agonist 1 μM” value under setting [2] is 118.2%. For the same molecule, under setting [3], the “Concentration … as Agonist 1 μM + BFNA” value turned out to be 15.1%.
In the case of `OC(COc1cccc(C(F)(F)F)c1)CN1CCc2ccccc2C1` (stereo not drawn) [Compound A0054], the “% DAMGO (0.1 μM)” value was found to be 44.4%, the “% DAMGO (1 μM)” value stood at 63.9% and the “% DAMGO + BFNA” value is 348.9%. For the same molecule, the “Concentration … as Agonist 0.1 μM” value under setting [1] is given as 74.9%. Moreover, the “Concentration of FLNA-Binding Compound as Agonist 1 μM” value under setting [2] is on record as 159.2%. Also, under setting [3], the “Concentration … as Agonist 1 μM + BFNA” value stood at 114.1%.
On to `OC(COc1cccc(F)c1)CN1CCc2ccccc2C1` (stereo not drawn) [Compound A0055], for which the “% DAMGO (0.1 μM)” value was 53.2%, the “% DAMGO (1 μM)” value was 78.4% and the “% DAMGO + BFNA” value is on record as 102.4%. Also, the “Concentration … as Agonist 0.1 μM” value under setting [1] was 89.8%. The “Concentration of FLNA-Binding Compound as Agonist 1 μM” value under setting [2] came to 195.2%. For the same molecule, the “Concentration … as Agonist 1 μM + BFNA” value under setting [3] is on record as 33.5%.
Consider `CC1CCC(C(C)C)C(OCC(O)CN2CCC(=O)C(C)C2)C1` (stereo not drawn) [Compound A0056], for which the “% DAMGO (0.1 μM)” value was 74.1%, the “% DAMGO (1 μM)” value came to 56.2%, the “% DAMGO + BFNA” value is on record as 43.6% and the “Concentration … as Agonist 0.1 μM” value came to 115.6%. Moreover, the “Concentration of FLNA-Binding Compound as Agonist 1 μM” value is 129.6% and the “Concentration … as Agonist 1 μM + BFNA” value worked out at 17.4%.
Regarding `OC(COc1ccc(Br)c(F)c1)CN1CCc2ccccc2C1` (stereo not drawn) [Compound A0057], the “% DAMGO (0.1 μM)” value was 79.6%, the “% DAMGO (1 μM)” value came out at 83.3% and the “% DAMGO + BFNA” value came to 112.3%. For the same molecule, the “Concentration … as Agonist 0.1 μM” value under setting [1] is 124.2%. Further, under setting [2], the “Concentration of FLNA-Binding Compound as Agonist 1 μM” value worked out at 192.1%. In addition, the “Concentration … as Agonist 1 μM + BFNA” value under setting [3] was 44.8%.
Consider `OC(COc1ccc(Br)c(F)c1)CN1CCCCC1` (stereo not drawn) [Compound A0058], for which the “% DAMGO (0.1 μM)” value worked out at 45.3%, the “% DAMGO (1 μM)” value stood at 106.0% and the “% DAMGO + BFNA” value came out at 150.1%. Also, under setting [1], the “Concentration … as Agonist 0.1 μM” value stood at 70.7%. Moreover, the “Concentration of FLNA-Binding Compound as Agonist 1 μM” value under setting [2] is on record as 244.3%. Moreover, under setting [3], the “Concentration … as Agonist 1 μM + BFNA” value came to 59.9%.
As for `OC(COc1ccc(Br)c(F)c1)CN1CCSCC1` (stereo not drawn) [Compound A0059], the “% DAMGO (0.1 μM)” value was 63.5%, the “% DAMGO (1 μM)” value stood at 56.4%, the “% DAMGO + BFNA” value stood at 214.8% and the “Concentration … as Agonist 0.1 μM” value is 99.2%. Moreover, the “Concentration of FLNA-Binding Compound as Agonist 1 μM” value is 129.9% and the “Concentration … as Agonist 1 μM + BFNA” value turned out to be 85.7%.
